Biological target: T1, AlaRS R326W binding to GST-Nrp1 b1 (Homo sapiens, UniProt P49588, R326W)
T1 construct: made in house; host or cells: E. coli BL21 (DE3), pET-21a for AlaRS
T1 sequence (P49588 1-968 R326W): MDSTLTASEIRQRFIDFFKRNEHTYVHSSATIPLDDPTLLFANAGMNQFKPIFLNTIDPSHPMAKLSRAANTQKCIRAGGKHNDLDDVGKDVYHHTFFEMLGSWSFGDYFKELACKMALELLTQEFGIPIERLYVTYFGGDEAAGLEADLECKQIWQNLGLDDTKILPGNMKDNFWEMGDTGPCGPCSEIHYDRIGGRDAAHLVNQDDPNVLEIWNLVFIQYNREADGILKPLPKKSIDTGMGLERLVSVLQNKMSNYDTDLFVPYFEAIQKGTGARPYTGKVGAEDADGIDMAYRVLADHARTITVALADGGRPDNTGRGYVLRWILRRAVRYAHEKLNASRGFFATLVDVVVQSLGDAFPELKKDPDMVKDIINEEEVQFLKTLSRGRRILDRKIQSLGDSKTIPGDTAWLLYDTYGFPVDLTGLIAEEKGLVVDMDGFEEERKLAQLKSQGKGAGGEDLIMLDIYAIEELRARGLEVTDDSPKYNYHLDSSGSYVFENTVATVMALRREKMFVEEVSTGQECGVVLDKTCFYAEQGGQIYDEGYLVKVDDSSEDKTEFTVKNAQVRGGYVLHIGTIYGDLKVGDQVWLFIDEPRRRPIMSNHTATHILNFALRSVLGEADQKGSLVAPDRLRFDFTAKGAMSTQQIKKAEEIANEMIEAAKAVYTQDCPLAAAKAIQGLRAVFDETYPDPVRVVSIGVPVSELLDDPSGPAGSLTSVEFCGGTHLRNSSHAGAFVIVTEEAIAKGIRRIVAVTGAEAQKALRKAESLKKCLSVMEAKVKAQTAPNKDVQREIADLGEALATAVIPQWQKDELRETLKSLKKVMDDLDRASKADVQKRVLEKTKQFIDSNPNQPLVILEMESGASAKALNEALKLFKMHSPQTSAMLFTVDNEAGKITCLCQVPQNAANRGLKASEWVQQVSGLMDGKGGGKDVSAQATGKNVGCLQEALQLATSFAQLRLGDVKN
Test: GST pull down assay
Details: 20 µM Tanshinone I, ImageJ, average of three repeats
Protocol: To further investigate whether Tanshinone I-induced conformational changes in AlaRS CMT mutants affect their interaction with Nrp1, Co-IP experiments were performed in cells treated with Tanshinone I. By comparing Co-IP results obtained before and after treatment, we assessed the influence of the drug on the binding strength and mode between the AlaRS CMT mutants and Nrp1. […] To confirm the direct effect of Tanshinone I on the interaction between AlaRS CMT mutants and Nrp1, pull-down experiments were performed. […] Given that the interaction between AlaRS mutants and Nrp1 is associated with disease progression in CMT, the ability of Tanshinone I to disrupt this binding highlights its potential to intervene in the pathogenic mechanisms of these diseases.
Figure 7 The impact of Tanshinone I on the interaction between AlaRS mutants and Nrp1. (A) Co-IP assays were conducted to assess the binding between HA-AlaRS mutants and Nrp1, both with and without treatment with 20 µM Tanshinone I for 24 h. […] (C) Pull down assay was performed to detect the binding between AlaRS mutants and GST-Nrp1 b1 with or without 20 µM Tanshinone I. (D) Relative quantification statistics of the AlaRS mutants pulled down from the GST pull down experiments after Tanshinone I treatment were performed using ImageJ. (E) The cell viability of 293T and NSC34 cells treated with different concentrations of Tanshinone I was assessed using the CCK-8 assay over a 24 h period. TEXT PRINTED IN THE PICTURE: (B) Tanshinone I: Mean density band (N71Y): 0.60; Mean density band (G102R): 0.53; Mean density band (R326W): 0.50; Mean density band (R329H): 0.50; Mean density band (E337K): 0.62 | (D) Tanshinone I: Mean density band (N71Y): 0.82; Mean density band (G102R): 0.76; Mean density band (R326W): 0.84; Mean density band (R329H): 0.84; Mean density band (E337K): 0.90
To detect the direct interactions between the mutant proteins and Nrp1 in vitro, we performed a Glutathione S-transferase (GST) pull-down assay. AlaRS mutants fused with 6 × His were purified with Ni-NTA beads, followed by chromatography on a HiTrap Q HP column. Nrp1 b1 fragments fused with GST were purified with Glutathione Beads (#SA008100, Smart-Lifesciences, Changzhou, China). For GST pull-down assays, 1000 μg of each GST-fused Nrp1 b1 fragment was mixed with 200 μg of 6 × His-tagged fusion protein in binding buffer (50 mM Tris-HCl pH 7.5, 20 mM NaCl, 5% glycerol, 5 mM DTT with 0.1% BSA) at 4 °C overnight. The mixture was next incubated with 30 μL glutathione beads at 4 °C with constant rotation for 2–4 h. Subsequently, the bead/protein complex was washed three times, and eluted with 30 μL 2 × SDS sample buffer. The samples were then subjected to SDS-PAGE analysis. The experiment was repeated three times.

Mean density band (R326W), relative quantification of AlaRS mutant pulled down: 0.84
Structure (SMILES): Cc1coc2c1C(=O)C(=O)c1c-2ccc2c(C)cccc12 [Tanshinone I]
